Patent US20080009418A1, “Selective Inhibitors” (Alchemia LTD., priority 2004, published 2008)

What was measured:
[1] = molecular target: T1, Human Melanocortin (MC4) (Homo sapiens, UniProt P32245); test: Radioligand binding, human melanocortin MC4 membranes, FlashPlate, [125I]-NDP-αMSH; settings: compound at 10 μM; for A4 radioligand binding inhibition: human melanocortin MC4 membranes
T1 construct: purchased Perkin Elmer Biosignal
Method in brief: (§1)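 Cloned human receptor membranes were coated onto FlashPlate wells and incubated with radioligand and compound (added from a 0.5 mM DMSO daughter plate) for 1 hour at room temperature in the dark. Scintillation counting gave percent inhibition, with DMSO defining total and reference ligand defining non-specific binding.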

[2] = molecular target: T2, Human Melanocortin (MC3) (Homo sapiens, UniProt P41968); test: Radioligand binding, human melanocortin MC3 membranes, FlashPlate, [125I]-NDP-αMSH; settings: compound at 10 μM; for A3 radioligand binding inhibition: human melanocortin MC3 membranes
T2 construct: purchased Perkin Elmer Biosignal
T2 sequence (P41968 whole entry): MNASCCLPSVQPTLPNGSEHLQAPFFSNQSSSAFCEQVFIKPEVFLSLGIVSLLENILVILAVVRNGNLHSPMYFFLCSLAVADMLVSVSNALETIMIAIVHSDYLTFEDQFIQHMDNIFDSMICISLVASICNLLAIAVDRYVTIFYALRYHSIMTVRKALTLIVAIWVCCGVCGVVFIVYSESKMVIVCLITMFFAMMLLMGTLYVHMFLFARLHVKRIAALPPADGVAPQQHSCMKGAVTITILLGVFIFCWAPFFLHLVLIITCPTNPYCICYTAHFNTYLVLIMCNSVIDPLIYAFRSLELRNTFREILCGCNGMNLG
Method in brief: as §1

[3] = molecular target: T3, Human κ-Opioid (KOP) (Homo sapiens, UniProt P41145); test: Radioligand binding, human κ-opioid (KOP) membranes, filtration, [3H]-Diprenorphine; settings: compound at 10 μM; for A2 radioligand binding inhibition: human κ-opioid (KOP) membranes
T3 construct: purchased Perkin Elmer Biosignal
T3 sequence (P41145 whole entry): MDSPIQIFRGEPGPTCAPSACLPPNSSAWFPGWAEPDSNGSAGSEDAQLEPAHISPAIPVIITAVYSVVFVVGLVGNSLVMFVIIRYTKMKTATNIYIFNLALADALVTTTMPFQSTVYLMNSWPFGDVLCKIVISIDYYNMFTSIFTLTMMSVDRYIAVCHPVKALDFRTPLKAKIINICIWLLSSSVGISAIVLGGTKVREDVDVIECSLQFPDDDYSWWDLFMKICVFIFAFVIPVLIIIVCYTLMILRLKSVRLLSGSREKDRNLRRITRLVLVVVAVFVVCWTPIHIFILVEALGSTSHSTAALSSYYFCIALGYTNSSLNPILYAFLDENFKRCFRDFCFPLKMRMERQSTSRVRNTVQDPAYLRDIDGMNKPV
Method in brief: (§2)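 Percent inhibition of radioligand binding measured on recombinant human membranes: NK1 with [125I]-Substance P, KOP with [3H]-Diprenorphine. Incubation 1 h at room temperature, then harvest onto 0.3% PEI-soaked filters, cold Tris-HCl pH 7.4 washes and scintillation counting; non-specific binding from reference ligand wells.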

[4] = molecular target: T4, Mouse urotensin (mUR2) (Mus musculus, UniProt Q8VIH9); test: Radioligand binding, mouse urotensin mUR2 membranes, FlashPlate, [125I]-Urotensin II; settings: compound at 10 μM; for A11 radioligand binding inhibition: mouse urotensin mUR2 membranes
T4 construct: purchased Perkin Elmer Biosignal
T4 sequence (Q8VIH9 1-385): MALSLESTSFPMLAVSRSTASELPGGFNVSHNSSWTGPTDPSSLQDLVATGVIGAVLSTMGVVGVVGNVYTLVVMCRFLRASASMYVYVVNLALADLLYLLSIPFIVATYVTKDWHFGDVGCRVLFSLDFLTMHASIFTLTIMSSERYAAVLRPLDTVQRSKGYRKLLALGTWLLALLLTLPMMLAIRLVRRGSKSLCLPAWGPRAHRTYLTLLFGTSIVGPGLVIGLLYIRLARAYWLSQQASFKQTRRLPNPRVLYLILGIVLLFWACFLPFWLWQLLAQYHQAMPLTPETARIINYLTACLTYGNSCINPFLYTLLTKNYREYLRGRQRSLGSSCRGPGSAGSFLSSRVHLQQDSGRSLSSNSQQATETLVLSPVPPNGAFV
Method in brief: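 Cloned mouse urotensin (mUR2) receptor membranes from Perkin Elmer Biosignal were immobilized in FlashPlate microplates using a proprietary coating. Each well got 19.5 μl buffer, then 0.5 μl of DMSO, reference ligand, or compound. Adding 5 μl of [125I]-Urotensin II, diluted to 5× final concentration in binding buffer, started binding. Plates were sealed with TopSeal-A and incubated 1 hour at room temperature in the dark. Wells were counted for 30 seconds each on a TopCount after a 60-second delay, and percentage inhibition was calculated.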

[5] = molecular target: T5, Human μ-opioid (MOP) (Homo sapiens, UniProt P35372); test: Radioligand binding, human μ-opioid (MOP) membranes, FlashPlate, [3H]-Naloxone; settings: compound at 10 μM; for A7 radioligand binding inhibition: human μ-opioid (MOP) membranes
T5 construct: purchased Perkin Elmer Biosignal
T5 sequence (P35372 whole entry): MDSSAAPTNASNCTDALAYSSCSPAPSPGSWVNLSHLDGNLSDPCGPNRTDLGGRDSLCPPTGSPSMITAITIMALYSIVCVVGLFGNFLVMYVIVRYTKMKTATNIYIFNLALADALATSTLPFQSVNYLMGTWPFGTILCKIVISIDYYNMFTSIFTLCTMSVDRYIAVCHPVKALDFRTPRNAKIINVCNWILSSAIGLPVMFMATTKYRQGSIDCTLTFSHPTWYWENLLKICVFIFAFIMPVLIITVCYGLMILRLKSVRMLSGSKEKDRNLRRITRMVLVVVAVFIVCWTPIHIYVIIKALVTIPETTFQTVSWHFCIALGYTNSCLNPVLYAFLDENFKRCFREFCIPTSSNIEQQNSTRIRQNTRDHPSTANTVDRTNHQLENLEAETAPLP
Method in brief: as §1

[6] = molecular target: T6, Human δ-opioid (DOP) (Homo sapiens, UniProt P41143); test: Radioligand binding, human δ-opioid (DOP) membranes, FlashPlate, [3H]-Bremazocine; settings: compound at 10 μM; for A1 radioligand binding inhibition: human δ-opioid (DOP) membranes
T6 construct: purchased Perkin Elmer Biosignal
T6 sequence (P41143 whole entry): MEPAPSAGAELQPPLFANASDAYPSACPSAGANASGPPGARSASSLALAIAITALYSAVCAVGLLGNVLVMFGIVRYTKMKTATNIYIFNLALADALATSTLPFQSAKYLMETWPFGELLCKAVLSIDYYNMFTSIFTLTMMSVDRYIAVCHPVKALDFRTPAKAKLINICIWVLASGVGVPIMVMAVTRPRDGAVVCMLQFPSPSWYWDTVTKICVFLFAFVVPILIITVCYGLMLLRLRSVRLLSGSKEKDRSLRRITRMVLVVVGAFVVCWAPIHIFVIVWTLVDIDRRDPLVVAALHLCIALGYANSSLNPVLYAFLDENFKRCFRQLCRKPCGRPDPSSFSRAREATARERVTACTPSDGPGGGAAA
Method in brief: as §1

[7] = molecular target: T7, Human melanocortin (MC5) (Homo sapiens, UniProt P33032); test: Radioligand binding, human melanocortin MC5 membranes, FlashPlate, [125I]-NDP-αMSH; settings: compound at 10 μM; for A5 radioligand binding inhibition: human melanocortin MC5 membranes
T7 construct: purchased Perkin Elmer Biosignal
T7 sequence (P33032 whole entry): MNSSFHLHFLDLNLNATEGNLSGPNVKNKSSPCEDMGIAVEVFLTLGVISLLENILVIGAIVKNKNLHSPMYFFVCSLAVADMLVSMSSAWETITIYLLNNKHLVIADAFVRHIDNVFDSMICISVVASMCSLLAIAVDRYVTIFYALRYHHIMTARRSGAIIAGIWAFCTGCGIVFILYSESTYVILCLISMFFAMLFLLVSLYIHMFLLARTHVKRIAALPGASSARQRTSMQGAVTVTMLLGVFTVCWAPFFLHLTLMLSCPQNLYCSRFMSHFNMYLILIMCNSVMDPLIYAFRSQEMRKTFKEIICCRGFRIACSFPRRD
Method in brief: as §1

[8] = molecular target: T8, Human opioid (ORL1) (Homo sapiens, UniProt P41146); test: Radioligand binding, human opioid ORL1 membranes, FlashPlate, [125I]-Nociceptin; settings: compound at 10 μM
T8 construct: purchased Perkin Elmer Biosignal
T8 sequence (P41146 whole entry): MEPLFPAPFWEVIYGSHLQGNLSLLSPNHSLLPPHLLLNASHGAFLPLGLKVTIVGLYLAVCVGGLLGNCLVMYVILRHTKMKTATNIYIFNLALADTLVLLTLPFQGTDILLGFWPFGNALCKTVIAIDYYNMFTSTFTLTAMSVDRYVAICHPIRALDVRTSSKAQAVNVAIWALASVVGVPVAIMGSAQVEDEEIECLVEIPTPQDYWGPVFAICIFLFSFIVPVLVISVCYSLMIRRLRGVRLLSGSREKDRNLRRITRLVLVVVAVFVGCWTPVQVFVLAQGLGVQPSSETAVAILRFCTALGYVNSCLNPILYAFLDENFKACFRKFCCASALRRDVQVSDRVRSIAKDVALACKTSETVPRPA
Method in brief: as §1

[9] = molecular target: T9, Human neurokinin (NK1) (Homo sapiens, UniProt P25103); test: Radioligand binding, human neurokinin NK1 membranes, filtration, [125I]-Substance P; settings: compound at 10 μM; for A8 radioligand binding inhibition: human neurokinin NK1 membranes
T9 construct: purchased Perkin Elmer Biosignal
T9 sequence (P25103 whole entry): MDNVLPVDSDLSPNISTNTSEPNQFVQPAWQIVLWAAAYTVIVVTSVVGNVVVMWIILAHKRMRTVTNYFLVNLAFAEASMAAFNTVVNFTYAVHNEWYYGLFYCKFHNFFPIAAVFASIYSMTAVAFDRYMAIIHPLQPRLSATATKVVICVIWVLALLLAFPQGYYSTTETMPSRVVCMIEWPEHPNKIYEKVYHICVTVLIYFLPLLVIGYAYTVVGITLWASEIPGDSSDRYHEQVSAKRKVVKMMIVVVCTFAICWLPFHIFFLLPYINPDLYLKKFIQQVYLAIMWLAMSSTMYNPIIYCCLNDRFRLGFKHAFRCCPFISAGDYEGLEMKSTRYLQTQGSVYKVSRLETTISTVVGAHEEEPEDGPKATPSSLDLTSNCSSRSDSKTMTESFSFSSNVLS
Method in brief: as §2

[10] = molecular target: T10, Human melanin-concentrating hormone (MCH1) (Homo sapiens, UniProt Q99705); test: Radioligand binding, human melanin-concentrating hormone MCH1 membranes, FlashPlate, [125I]-S36057; settings: compound at 10 μM; for A6 radioligand binding inhibition: human MCH1 membranes
T10 construct: purchased Perkin Elmer Biosignal
T10 sequence (Q99705 whole entry): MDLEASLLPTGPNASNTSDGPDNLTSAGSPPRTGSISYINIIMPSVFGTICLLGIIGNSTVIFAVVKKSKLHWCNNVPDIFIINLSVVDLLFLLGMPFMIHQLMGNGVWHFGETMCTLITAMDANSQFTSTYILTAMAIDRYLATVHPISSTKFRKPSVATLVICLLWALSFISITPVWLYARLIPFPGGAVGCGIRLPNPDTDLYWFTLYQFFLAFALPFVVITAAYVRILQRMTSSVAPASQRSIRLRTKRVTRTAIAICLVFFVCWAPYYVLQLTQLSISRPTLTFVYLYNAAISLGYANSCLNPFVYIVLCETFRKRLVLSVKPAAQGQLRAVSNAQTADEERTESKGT
Method in brief: as §1

[11] = molecular target: T11, Human neuropeptide Y (NPY-Y1) (Homo sapiens, UniProt P25929); test: Radioligand binding, human neuropeptide Y NPY-Y1 membranes, FlashPlate, [125I]-PYY; settings: compound at 10 μM
T11 construct: purchased Perkin Elmer Biosignal
T11 sequence (P25929 1-384): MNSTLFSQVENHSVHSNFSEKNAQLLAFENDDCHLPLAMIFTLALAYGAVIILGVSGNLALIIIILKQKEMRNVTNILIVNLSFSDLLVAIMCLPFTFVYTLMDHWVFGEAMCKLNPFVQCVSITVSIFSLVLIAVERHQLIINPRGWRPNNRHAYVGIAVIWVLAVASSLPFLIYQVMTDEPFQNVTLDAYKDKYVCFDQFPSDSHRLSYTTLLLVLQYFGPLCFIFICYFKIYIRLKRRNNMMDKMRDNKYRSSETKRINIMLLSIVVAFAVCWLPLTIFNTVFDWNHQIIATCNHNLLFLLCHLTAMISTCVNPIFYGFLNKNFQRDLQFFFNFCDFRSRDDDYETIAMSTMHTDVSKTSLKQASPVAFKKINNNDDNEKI
Method in brief: as §1

T1 sequence (P32245 whole entry): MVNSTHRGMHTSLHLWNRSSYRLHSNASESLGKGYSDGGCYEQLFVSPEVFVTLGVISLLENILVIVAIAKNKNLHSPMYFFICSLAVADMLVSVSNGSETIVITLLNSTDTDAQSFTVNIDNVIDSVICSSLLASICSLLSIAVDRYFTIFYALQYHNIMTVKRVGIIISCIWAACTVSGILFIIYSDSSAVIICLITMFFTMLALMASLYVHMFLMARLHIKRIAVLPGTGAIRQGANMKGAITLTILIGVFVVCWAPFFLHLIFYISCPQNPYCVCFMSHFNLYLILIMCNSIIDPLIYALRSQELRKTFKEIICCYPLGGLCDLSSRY

[N-]=[N+]=N[C@H]1C(OCCNC(=N)N)O[C@H](COCc2ccc3ccccc3c2)[C@@H](O)[C@@H]1OCc1ccccc1 (stereo partly shown) [compound 126]
A4 radioligand binding, percentage inhibition ([1]; [125I]-NDP-αMSH): + (“+” indicates greater than 50% inhibition at 10 μM)
A3 radioligand binding, percentage inhibition ([2]; [125I]-NDP-αMSH): − (“−” indicates less than 50% inhibition at 10 μM)
A2 radioligand binding, percentage inhibition ([3]; [3H]-Diprenorphine): − (“−” indicates less than 50% inhibition at 10 μM)
A11 radioligand binding, percentage inhibition ([4]; [125I]-Urotensin II): − (“−” indicates less than 50% inhibition at 10 μM)
A7 radioligand binding, percentage inhibition ([5]; [3H]-Naloxone): − (“−” indicates less than 50% inhibition at 10 μM)
A1 radioligand binding, percentage inhibition ([6]; [3H]-Bremazocine): − (“−” indicates less than 50% inhibition at 10 μM)
A5 radioligand binding, percentage inhibition ([7]; [125I]-NDP-αMSH): + (“+” indicates greater than 50% inhibition at 10 μM)
A10 radioligand binding, percentage inhibition ([8]; [125I]-Nociceptin): − (“−” indicates less than 50% inhibition at 10 μM)
A8 radioligand binding, percentage inhibition ([9]; [125I]-Substance P): + (“+” indicates greater than 50% inhibition at 10 μM)
A6 radioligand binding, percentage inhibition ([10]; [125I]-S36057): + (“+” indicates greater than 50% inhibition at 10 μM)
A9 radioligand binding, percentage inhibition ([11]; [125I]-PYY): − (“−” indicates less than 50% inhibition at 10 μM)

CO[C@H]1[C@H](O)[C@@H](COCc2ccc(-c3ccccc3)cc2)OC(OCc2ccccc2)[C@@H]1NC(=O)CCCN (stereo partly shown) [compound 84]
A4 radioligand binding inhibition [1]: − (“−” indicates less than 50% inhibition at 10 μM)
A3 radioligand binding inhibition [2]: − (“−” indicates less than 50% inhibition at 10 μM)
A2 radioligand binding inhibition [3]: − (“−” indicates less than 50% inhibition at 10 μM)
A11 radioligand binding inhibition [4]: − (“−” indicates less than 50% inhibition at 10 μM)
A7 radioligand binding inhibition [5]: − (“−” indicates less than 50% inhibition at 10 μM)
A1 radioligand binding inhibition [6]: − (“−” indicates less than 50% inhibition at 10 μM)
A5 radioligand binding inhibition [7]: − (“−” indicates less than 50% inhibition at 10 μM)
A10 radioligand binding inhibition ([8]; human ORL1 membranes): − (“−” indicates less than 50% inhibition at 10 μM)
A8 radioligand binding inhibition [9]: + (“+” indicates greater than 50% inhibition at 10 μM)
A6 radioligand binding inhibition [10]: − (“−” indicates less than 50% inhibition at 10 μM)
A9 radioligand binding inhibition ([11]; human NPY-Y1 membranes): − (“−” indicates less than 50% inhibition at 10 μM)

N=C(N)NCC(=O)NC1C(OCc2ccc(Cl)cc2)OC(COCc2ccccc2)C(O)C1OCc1ccc2ccccc2c1 (stereo not shown) [compound 421]
A4: inhibition of radioligand binding ([1]; [125I]-NDP-αMSH, human MC4 membranes): + (“+” indicates greater than 50% inhibition at 10 μM)
A3: inhibition of radioligand binding ([2]; [125I]-NDP-αMSH, human MC3 membranes): + (“+” indicates greater than 50% inhibition at 10 μM)
A2: inhibition of radioligand binding ([3]; [3H]-Diprenorphine, human KOP membranes): − (“−” indicates less than 50% inhibition at 10 μM)
A11: inhibition of radioligand binding ([4]; [125I]-Urotensin II, mouse mUR2 membranes): − (“−” indicates less than 50% inhibition at 10 μM)
A7: inhibition of radioligand binding ([5]; [3H]-Naloxone, human MOP membranes): − (“−” indicates less than 50% inhibition at 10 μM)
A1: inhibition of radioligand binding ([6]; [3H]-Bremazocine, human DOP membranes): − (“−” indicates less than 50% inhibition at 10 μM)
A5: inhibition of radioligand binding ([7]; [125I]-NDP-αMSH, human MC5 membranes): + (“+” indicates greater than 50% inhibition at 10 μM)
A10: inhibition of radioligand binding ([8]; [125I]-Nociceptin, human ORL1 membranes): + (“+” indicates greater than 50% inhibition at 10 μM)
A8: inhibition of radioligand binding ([9]; [125I]-Substance P, human NK1 membranes): + (“+” indicates greater than 50% inhibition at 10 μM)
A6: inhibition of radioligand binding ([10]; [125I]-S36057, human MCH1 membranes): + (“+” indicates greater than 50% inhibition at 10 μM)
A9: inhibition of radioligand binding ([11]; [125I]-PYY, human NPY-Y1 membranes): − (“−” indicates less than 50% inhibition at 10 μM)

CO[C@H]1[C@H](O)[C@@H](COCc2ccc3ccccc3c2)OC(OCc2ccc(Cl)cc2)[C@@H]1NC(=O)C1CCN(C(=N)N)CC1 (stereo partly shown) [compound 354]
A4: inhibition of radioligand binding, human melanocortin (MC4) ([1]; [125I]-NDP-αMSH): + (“+” indicates greater than 50% inhibition at 10 μM)
A3: inhibition of radioligand binding, human melanocortin (MC3) ([2]; [125I]-NDP-αMSH): − (“−” indicates less than 50% inhibition at 10 μM)
A2: inhibition of radioligand binding, human κ-opioid (KOP) ([3]; [3H]-Diprenorphine): − (“−” indicates less than 50% inhibition at 10 μM)
A11: inhibition of radioligand binding, mouse urotensin (mUR2) ([4]; [125I]-Urotensin II): − (“−” indicates less than 50% inhibition at 10 μM)
A7: inhibition of radioligand binding, human μ-opioid (MOP) ([5]; [3H]-Naloxone): − (“−” indicates less than 50% inhibition at 10 μM)
A1: inhibition of radioligand binding, human δ-opioid (DOP) ([6]; [3H]-Bremazocine): − (“−” indicates less than 50% inhibition at 10 μM)
A5: inhibition of radioligand binding, human melanocortin (MC5) ([7]; [125I]-NDP-αMSH): + (“+” indicates greater than 50% inhibition at 10 μM)
A10: inhibition of radioligand binding, human opioid (ORL1) ([8]; [125I]-Nociceptin): − (“−” indicates less than 50% inhibition at 10 μM)
A8: inhibition of radioligand binding, human neurokinin (NK1) ([9]; [125I]-Substance P): + (“+” indicates greater than 50% inhibition at 10 μM)
A6: inhibition of radioligand binding, human melanin-concentrating hormone (MCH1) ([10]; [125I]-S36057): − (“−” indicates less than 50% inhibition at 10 μM)
A9: inhibition of radioligand binding, human neuropeptide Y (NPY-Y1) ([11]; [125I]-PYY): − (“−” indicates less than 50% inhibition at 10 μM)

COC[C@H]1OC(OCc2ccc(-c3ccccc3)cc2)[C@H](NC(=O)CCCNC(=N)N)[C@@H](OCc2ccc(Cl)cc2)[C@@H]1O (stereo partly shown) [compound 13]
A4 radioligand binding inhibition [1]: − (“−” indicates less than 50% inhibition at 10 μM)
A3 radioligand binding inhibition [2]: − (“−” indicates less than 50% inhibition at 10 μM)
A2 radioligand binding inhibition [3]: − (“−” indicates less than 50% inhibition at 10 μM)
A11 radioligand binding inhibition [4]: − (“−” indicates less than 50% inhibition at 10 μM)
A7 radioligand binding inhibition [5]: + (“+” indicates greater than 50% inhibition at 10 μM)
A1 radioligand binding inhibition [6]: − (“−” indicates less than 50% inhibition at 10 μM)
A5 radioligand binding inhibition [7]: + (“+” indicates greater than 50% inhibition at 10 μM)
A10 radioligand binding inhibition ([8]; human ORL1 membranes): − (“−” indicates less than 50% inhibition at 10 μM)
A8 radioligand binding inhibition [9]: + (“+” indicates greater than 50% inhibition at 10 μM)
A6 radioligand binding inhibition [10]: + (“+” indicates greater than 50% inhibition at 10 μM)
A9 radioligand binding inhibition ([11]; human NPY-Y1 membranes): − (“−” indicates less than 50% inhibition at 10 μM)
